Measured values: article PMC5267425, “Identification of small molecule modulators of HIV-1 Tat and Rev protein accumulation” (Retrovirology, 2017)
“And” between values parts separate entries of the source, which are not always exact repeats. Equal entries are not always repeated.

Test system: cellular gene expression in HeLa rtTA HIV∆Mls cells

In the case of Cc1cc(NCc2cccnc2)n2ncc(-c3ccc(Cl)cc3)c2n1 [Compound 791, 3-(4-chlorophenyl)-5-methyl-N-(3-pyridinylmethyl)pyrazolo[1,5-a]pyrimidin-7-amine], the LYSMD1 expression level (gene LYSMD1, 9147791-treated cells, two replicates) is reported as 6.83 and 7.15, the MAP3K12 expression level (gene MAP3K12, 9147791-treated cells, two replicates) is reported as 10.58 and 11.11 and the MBD6 expression level (gene MBD6, 9147791-treated cells, two replicates) is reported as 19.55 and 19.21. For the same compound, the MBLAC2 expression level (gene MBLAC2, 9147791-treated cells, two replicates) was 3.53 and 3.60, the MED1 expression level (gene MED1, 9147791-treated cells, two replicates) was 16.72 and 17.76 and the MKKS expression level (gene MKKS, 9147791-treated cells, two replicates) was 33.76 and 31.64. The MLKL expression level (gene MLKL, 9147791-treated cells, two replicates) was 8.65 and 8.80, the MORC2 expression level (gene MORC2, 9147791-treated cells, two replicates) was 14.30 and 13.93 and the MRPL1 expression level (gene MRPL1, 9147791-treated cells, two replicates) was 13.37 and 12.84. The MRPS16 expression level (gene MRPS16, 9147791-treated cells, two replicates) was 56.39 and 57.78, the MRPS18B expression level (gene MRPS18B, 9147791-treated cells, two replicates) was 84.33 and 82.56 and the MSL1 expression level (gene MSL1, 9147791-treated cells, two replicates) was 19.35 and 20.08. The MTIF2 expression level (gene MTIF2, 9147791-treated cells, two replicates) was 23.18 and 24.37, the MXI1 expression level (gene MXI1, 9147791-treated cells, two replicates) was 11.96 and 11.72 and the MYSM1 expression level (gene MYSM1, 9147791-treated cells, two replicates) was 6.50 and 6.96. The NADK expression level (gene NADK, 9147791-treated cells, two replicates) was 51.36 and 49.09, the NFX1 expression level (gene NFX1, 9147791-treated cells, two replicates) was 16.88 and 17.47 and the NHLRC2 expression level (gene NHLRC2, 9147791-treated cells, two replicates) was 5.90 and 6.13. The NR2C1 expression level (gene NR2C1, 9147791-treated cells, two replicates) was 12.80 and 13.28, the NSMAF expression level (gene NSMAF, 9147791-treated cells, two replicates) was 20.81 and 21.54 and the NT5DC3 expression level (gene NT5DC3, 9147791-treated cells, two replicates) was 2.73 and 2.69. The NUFIP2 expression level (gene NUFIP2, 9147791-treated cells, two replicates) was 18.50 and 18.17, the OSMR expression level (gene OSMR, 9147791-treated cells, two replicates) was 33.63 and 36.47 and the OTUD6B expression level (gene OTUD6B, 9147791-treated cells, two replicates) was 9.61 and 9.84. For the same compound, the PATL1 expression level (gene PATL1, 9147791-treated cells, two replicates) was 30.78 and 31.35, the PEX19 expression level (gene PEX19, 9147791-treated cells, two replicates) was 25.90 and 26.36 and the PHF1 expression level (gene PHF1, 9147791-treated cells, two replicates) was 27.67 and 28.09. For the same compound, the PIP4K2C expression level (gene PIP4K2C, 9147791-treated cells, two replicates) was 17.91 and 18.93, the PLD3 expression level (gene PLD3, 9147791-treated cells, two replicates) was 114.37 and 115.61 and the PLD6 expression level (gene PLD6, 9147791-treated cells, two replicates) was 4.96 and 5.07. The PLEKHG4 expression level (gene PLEKHG4, 9147791-treated cells, two replicates) was 9.09 and 8.55, the PLRG1 expression level (gene PLRG1, 9147791-treated cells, two replicates) was 18.77 and 17.99 and the PNPO expression level (gene PNPO, 9147791-treated cells, two replicates) was 12.32 and 11.96. For the same compound, the POLR1B expression level (gene POLR1B, 9147791-treated cells, two replicates) was 13.48 and 13.61, the PORCN expression level (gene PORCN, 9147791-treated cells, two replicates) was 8.43 and 8.53 and the PPIE expression level (gene PPIE, 9147791-treated cells, two replicates) was 36.69 and 37.52. For the same compound, the PPPDE1 expression level (gene PPPDE1, 9147791-treated cells, two replicates) was 25.65 and 26.33, the PPPDE2 expression level (gene PPPDE2, 9147791-treated cells, two replicates) was 24.63 and 25.91 and the PRDX5 expression level (gene PRDX5, 9147791-treated cells, two replicates) was 527.71 and 539.87. The PRKAB1 expression level (gene PRKAB1, 9147791-treated cells, two replicates) was 9.24 and 9.53, the PRKAB2 expression level (gene PRKAB2, 9147791-treated cells, two replicates) was 9.63 and 9.56 and the PRKAG2 expression level (gene PRKAG2, 9147791-treated cells, two replicates) was 4.40 and 4.65. For the same compound, the PRPF38B expression level (gene PRPF38B, 9147791-treated cells, two replicates) was 24.17 and 23.91, the RAD23A expression level (gene RAD23A, 9147791-treated cells, two replicates) was 139.22 and 133.17 and the RAD51C expression level (gene RAD51C, 9147791-treated cells, two replicates) was 25.11 and 27.22. For the same compound, the RBM18 expression level (gene RBM18, 9147791-treated cells, two replicates) was 22.42 and 23.14, the RDH14 expression level (gene RDH14, 9147791-treated cells, two replicates) was 13.62 and 14.25 and the REPS1 expression level (gene REPS1, 9147791-treated cells, two replicates) was 11.08 and 11.40. The RETSAT expression level (gene RETSAT, 9147791-treated cells, two replicates) was 39.84 and 41.20, the RFNG expression level (gene RFNG, 9147791-treated cells, two replicates) was 19.96 and 19.40 and the RILPL1 expression level (gene RILPL1, 9147791-treated cells, two replicates) was 8.85 and 9.19. The RIPK2 expression level (gene RIPK2, 9147791-treated cells, two replicates) was 9.51 and 9.78, the RNF135 expression level (gene RNF135, 9147791-treated cells, two replicates) was 6.73 and 6.55 and the RNF139 expression level (gene RNF139, 9147791-treated cells, two replicates) was 14.33 and 14.56. For the same compound, the RNF146 expression level (gene RNF146, 9147791-treated cells, two replicates) was 8.67 and 9.36, the RNF212 expression level (gene RNF212, 9147791-treated cells, two replicates) was 23.40 and 24.53 and the RPRD1A expression level (gene RPRD1A, 9147791-treated cells, two replicates) was 17.67 and 18.23. The RPUSD3 expression level (gene RPUSD3, 9147791-treated cells, two replicates) was 51.54 and 51.13, the RTTN expression level (gene RTTN, 9147791-treated cells, two replicates) was 5.05 and 5.18 and the RUNDC1 expression level (gene RUNDC1, 9147791-treated cells, two replicates) was 7.46 and 7.03. For the same compound, the SDCCAG3 expression level (gene SDCCAG3, 9147791-treated cells, two replicates) was 69.16 and 66.70, the SENP1 expression level (gene SENP1, 9147791-treated cells, two replicates) was 10.13 and 10.39 and the SENP5 expression level (gene SENP5, 9147791-treated cells, two replicates) was 9.14 and 9.80. For the same compound, the SIKE1 expression level (gene SIKE1, 9147791-treated cells, two replicates) was 10.16 and 10.46, the SLC26A11 expression level (gene SLC26A11, 9147791-treated cells, two replicates) was 7.10 and 7.46 and the SLC35B3 expression level (gene SLC35B3, 9147791-treated cells, two replicates) was 9.59 and 9.09. For the same compound, the SLC38A6 expression level (gene SLC38A6, 9147791-treated cells, two replicates) was 8.14 and 8.35, the SLC39A6 expression level (gene SLC39A6, 9147791-treated cells, two replicates) was 55.62 and 53.39 and the SMEK2 expression level (gene SMEK2, 9147791-treated cells, two replicates) was 22.28 and 23.17. The SQSTM1 expression level (gene SQSTM1, 9147791-treated cells, two replicates) was 402.87 and 398.40, the ST6GALNAC4 expression level (gene ST6GALNAC4, 9147791-treated cells, two replicates) was 39.60 and 40.55 and the ST7L expression level (gene ST7L, 9147791-treated cells, two replicates) was 3.77 and 3.85. The STAMBP expression level (gene STAMBP, 9147791-treated cells, two replicates) was 26.17 and 25.95, the STK24 expression level (gene STK24, 9147791-treated cells, two replicates) was 98.53 and 99.63 and the STK36 expression level (gene STK36, 9147791-treated cells, two replicates) was 5.44 and 5.78. The STK40 expression level (gene STK40, 9147791-treated cells, two replicates) was 6.18 and 6.16, the STX4 expression level (gene STX4, 9147791-treated cells, two replicates) was 45.64 and 43.00 and the TBCCD1 expression level (gene TBCCD1, 9147791-treated cells, two replicates) was 7.66 and 8.12. For the same compound, the TGDS expression level (gene TGDS, 9147791-treated cells, two replicates) was 10.85 and 10.65, the TIGD2 expression level (gene TIGD2, 9147791-treated cells, two replicates) was 10.77 and 11.51 and the TMEM33 expression level (gene TMEM33, 9147791-treated cells, two replicates) was 13.53 and 12.82. The TMEM68 expression level (gene TMEM68, 9147791-treated cells, two replicates) was 5.74 and 5.79, the TMEM120B expression level (gene TMEM120B, 9147791-treated cells, two replicates) was 7.48 and 7.87 and the TMEM126B expression level (gene TMEM126B, 9147791-treated cells, two replicates) was 51.64 and 47.99. For the same compound, the TMEM134 expression level (gene TMEM134, 9147791-treated cells, two replicates) was 16.44 and 17.07, the TMEM167B expression level (gene TMEM167B, 9147791-treated cells, two replicates) was 13.61 and 13.31 and the TRIM38 expression level (gene TRIM38, 9147791-treated cells, two replicates) was 6.07 and 6.47. The TRMT2A expression level (gene TRMT2A, 9147791-treated cells, two replicates) was 11.24 and 11.68, the TRNT1 expression level (gene TRNT1, 9147791-treated cells, two replicates) was 14.44 and 15.17 and the TTC9C expression level (gene TTC9C, 9147791-treated cells, two replicates) was 44.37 and 45.86. For the same compound, the USP3 expression level (gene USP3, 9147791-treated cells, two replicates) was 15.95 and 16.26, the USP45 expression level (gene USP45, 9147791-treated cells, two replicates) was 4.03 and 4.15 and the VHL expression level (gene VHL, 9147791-treated cells, two replicates) was 23.74 and 22.96. The WDR73 expression level (gene WDR73, 9147791-treated cells, two replicates) was 10.95 and 11.17, the XPO5 expression level (gene XPO5, 9147791-treated cells, two replicates) was 32.34 and 33.37 and the ZBED5 expression level (gene ZBED5, 9147791-treated cells, two replicates) was 26.69 and 27.18. For the same compound, the ZBTB26 expression level (gene ZBTB26, 9147791-treated cells, two replicates) was 10.25 and 9.99, the ZBTB34 expression level (gene ZBTB34, 9147791-treated cells, two replicates) was 4.78 and 4.42 and the ZCCHC4 expression level (gene ZCCHC4, 9147791-treated cells, two replicates) was 6.80 and 6.69. For the same compound, the ZCCHC8 expression level (gene ZCCHC8, 9147791-treated cells, two replicates) was 17.17 and 17.82, the ZCCHC9 expression level (gene ZCCHC9, 9147791-treated cells, two replicates) was 6.71 and 6.52 and the ZFP30 expression level (gene ZFP30, 9147791-treated cells, two replicates) was 3.88 and 3.75. For the same compound, the ZFP36L2 expression level (gene ZFP36L2, 9147791-treated cells, two replicates) was 6.55 and 6.96, the ZFP64 expression level (gene ZFP64, 9147791-treated cells, two replicates) was 11.62 and 11.15 and the ZFYVE27 expression level (gene ZFYVE27, 9147791-treated cells, two replicates) was 15.03 and 14.85. The ZNF12 expression level (gene ZNF12, 9147791-treated cells, two replicates) was 10.78 and 10.46, the ZNF91 expression level (gene ZNF91, 9147791-treated cells, two replicates) was 4.92 and 4.68 and the ZNF133 expression level (gene ZNF133, 9147791-treated cells, two replicates) was 7.16 and 7.05. The ZNF184 expression level (gene ZNF184, 9147791-treated cells, two replicates) was 6.52 and 6.31, the ZNF193 expression level (gene ZNF193, 9147791-treated cells, two replicates) was 10.85 and the ZNF195 expression level (gene ZNF195, 9147791-treated cells, two replicates) was 11.04 and 10.45. The ZNF319 expression level (gene ZNF319, 9147791-treated cells, two replicates) was 3.69 and 3.71, the ZNF320 expression level (gene ZNF320, 9147791-treated cells, two replicates) was 11.36 and 12.30 and the ZNF354A expression level (gene ZNF354A, 9147791-treated cells, two replicates) was 9.92 and 9.13. The ZNF445 expression level (gene ZNF445, 9147791-treated cells, two replicates) was 5.75 and 5.83, the ZNF566 expression level (gene ZNF566, 9147791-treated cells, two replicates) was 3.15 and 2.91 and the ZNF619 expression level (gene ZNF619, 9147791-treated cells, two replicates) was 2.16 and 1.99. The ZNF664 expression level (gene ZNF664, 9147791-treated cells, two replicates) was 57.01 and 56.94, the ZNF700 expression level (gene ZNF700, 9147791-treated cells, two replicates) was 10.30 and 10.08 and the ZNF706 expression level (gene ZNF706, 9147791-treated cells, two replicates) was 34.34 and 36.65. The ZNF764 expression level (gene ZNF764, 9147791-treated cells, two replicates) was 5.35 and 5.20, the ZNF780B expression level (gene ZNF780B, 9147791-treated cells, two replicates) was 4.74 and 4.46 and the ZNF800 expression level (gene ZNF800, 9147791-treated cells, two replicates) was 6.37 and 6.62. The ZRSR2 expression level (gene ZRSR2, 9147791-treated cells, two replicates) was 34.69 and 32.80, the ZSWIM7 expression level (gene ZSWIM7, 9147791-treated cells, two replicates) was 4.48 and 4.71 and the “genes with changes of <fivefold in expression” value (of ~10,000 genes detected) was 85. The “genes with changes of <tenfold in expression” value (of ~10,000 genes detected) was 4.
